# Reference: patent US12226455B2, “Medical composition for treating cardiac wasting and cachexia” (RELAXERA Pharmazeutische GmbH & Co. KG, priority 2019, dated 2025)
# Marks after values point to notes of the source that are not given here.
# Experiments:
# [1] = system: patients with advanced cancer in the hospice setting; experiment: Four-meter gait speed (4MGS) (clinical study); format: in vivo, human; conditions: n=20
# Method: (§1) 30 patients with advanced cancer in the hospice setting are included randomized and double-blind in a clinical study to a 10-day continuous sc. or iv. infusion of either synthetic human relaxin-2 (25 micrograms/kg body weight/day) (n=20) or placebo (n=10). The following exploratory clinical end-points are assessed at baseline and during treatment (day 3 and day 10): • 1. Patients are asked to report their current level of both dyspnea and general wellbeing relative to baseline using seven-level Likert scales. • 2. In the context of this study, ability of self-care is defined as ability to perform the measures of personal daily hygiene (washing, tooth-brushing) without help. • 3. Congestion is assessed as percentage of patients showing ankle edema or rales upon auscultation. • 4. Plasma levels of NT-proBNP (N-terminal fragment of pro-brain natriuretic peptide), a biomarker of cardiac decompensation, are determined. • 5. The four-meter gait speed (4MGS) is measured.
# [2] = system: patients with advanced cancer in the hospice setting; experiment: Level of general wellbeing relative to baseline on a seven-level Likert scale (clinical study); format: in vivo, human; conditions: 25 micrograms/kg body weight/day, n=20
# Method: as §1
# [3] = system: patients with advanced cancer in the hospice setting; experiment: Level of dyspnea relative to baseline on a seven-level Likert scale (clinical study); format: in vivo, human; conditions: n=20
# Method: as §1
# NT-proBNP = experiment: Plasma levels of NT-proBNP, biomarker of cardiac decompensation (clinical study); format: in vivo, human; conditions: n=20; for Plasma NT-proBNP, median: 25 micrograms/kg body weight/day
# Method: as §1
# [4] = system: patients with advanced cancer in the hospice setting; experiment: Congestion: ankle edema or rales upon auscultation, four-level scale (clinical study); format: in vivo, human; conditions: n=20
# Method: as §1
# [5] = system: hospice patients with advanced, incurable cancer; experiment: Overall conclusion of the 10-day clinical study in hospice patients; format: in vivo, human; conditions: continuous treatment for 10 days
# Method: as §1
# [6] = continuous subcutaneous infusion over 24 weeks; cited from earlier work
# [7] = system: patients with advanced cancer in the hospice setting; experiment: Ability of self-care (personal daily hygiene without help), yes-or-no level (clinical study); format: in vivo, human; conditions: n=20
# Method: as §1
# [8] = Day 3, 25 micrograms/kg body weight/day
# [9] = Day 10, 25 micrograms/kg body weight/day
# [10] = Day 3, 25 micrograms/kg body weight/day continuous sc. or iv. infusion
substance,measurement,setting,value
human relaxin-2,"Four-meter gait speed, median",[1]; Baseline,0.56 m/s
same,"Unable to walk 4 m, % of patients",[1]; Baseline,35%
same,"Unable to walk 4 m, absolute number of patients",[1]; Baseline,7
same,"Four-meter gait speed, median",[1]; [8],0.66 m/s
same,"Unable to walk 4 m, % of patients",[1]; [8],25%
same,"Unable to walk 4 m, absolute number of patients",[1]; [8],5
same,"Four-meter gait speed, median",[1]; [9],0.86* m/s
same,"Unable to walk 4 m, % of patients",[1]; [9],(15)^# %
same,"Unable to walk 4 m, absolute number of patients",[1]; [9],3
same,"Level of general wellbeing: markedly or moderately improved, absolute number of patients",[2]; Day 3,9
same,"Level of general wellbeing: markedly or moderately improved, percentage of patients",[2]; Day 3,(45)# %
same,"Level of general wellbeing: markedly or moderately worsened, absolute number of patients",[2]; Day 3,2
same,"Level of general wellbeing: markedly or moderately worsened, percentage of patients",[2]; Day 3,(10)# %
same,"Level of general wellbeing: markedly or moderately improved, absolute number of patients",[2]; Day 10,11
same,"Level of general wellbeing: markedly or moderately improved, percentage of patients",[2]; Day 10,(55)# %
same,"Level of general wellbeing: markedly or moderately worsened, absolute number of patients",[2]; Day 10,1
same,"Level of general wellbeing: markedly or moderately worsened, percentage of patients",[2]; Day 10,5%
same,"Level of dyspnea: markedly or moderately improved, absolute number of patients",[3]; [10],8
same,"Level of dyspnea: markedly or moderately improved, percentage of patients",[3]; [10],(40)^# %
same,"Level of dyspnea: markedly or moderately worsened, absolute number of patients",[3]; [8],1
same,"Level of dyspnea: markedly or moderately worsened, percentage of patients",[3]; [8],(5)^# %
same,"Level of dyspnea: markedly or moderately improved, absolute number of patients",[3]; [9],12
same,"Level of dyspnea: markedly or moderately improved, percentage of patients",[3]; [9],(60)^# %
same,"Level of dyspnea: markedly or moderately worsened, absolute number of patients",[3]; [9],1
same,"Level of dyspnea: markedly or moderately worsened, percentage of patients",[3]; [9],(5)^# %
same,"Plasma NT-proBNP, median (IQR)",NT-proBNP; Baseline,3438 (597-4175) pg/ml
same,"Plasma NT-proBNP, median",NT-proBNP; Day 3,1813 pg/mL
same,"Plasma NT-proBNP, median",NT-proBNP; Day 10,778 pg/mL
same,"Congestion: moderate or severe edema, absolute number of patients",[4]; Baseline,15
same,"Congestion: moderate or severe edema, percentage of patients",[4]; Baseline,(75) %
same,"Congestion: moderate or severe rales, absolute number of patients",[4]; Baseline,16
same,"Congestion: moderate or severe rales, percentage of patients",[4]; Baseline,(80) %
same,"Congestion: moderate or severe edema, absolute number of patients",[4]; [8],10
same,"Congestion: moderate or severe edema, percentage of patients",[4]; [8],(50) %
same,"Congestion: moderate or severe rales, absolute number of patients",[4]; [8],8
same,"Congestion: moderate or severe rales, percentage of patients",[4]; [8],(40)^# %
same,"Congestion: moderate or severe edema, absolute number of patients",[4]; [9],6
same,"Congestion: moderate or severe edema, percentage of patients",[4]; [9],(30)^# %
same,"Congestion: moderate or severe rales, absolute number of patients",[4]; [9],5
same,"Congestion: moderate or severe rales, percentage of patients",[4]; [9],(25)^# %
same,"Clinical signs of cardiac decompensation (congestion, dyspnea, circulating NT-proBNP)",[5],ameliorates clinical signs of cardiac decompensation
same,Clinical status of hospice patients,[5],markedly improves the clinical status
same,Physiological changes under relaxin infusion,[6],sustained physiological changes which closely mimicked those seen in human pregnancy
same,"Ability of self-care, absolute number of patients",[7]; Baseline,5
same,"Ability of self-care, percentage of patients",[7]; Baseline,25%
same,"Ability of self-care, absolute number of patients",[7]; [8],7
same,"Ability of self-care, percentage of patients",[7]; [8],35%
same,"Ability of self-care, absolute number of patients",[7]; [9],17
same,"Ability of self-care, percentage of patients",[7]; [9],(85)* %
